Test results from patent US20220395553A1, “CXCR4 ANTAGONIST PEPTIDES” (COHBAR, INC., priority 2019, published 2022).
Square brackets hold non-standard residues; d marks the D form. Peptide text beside a SMILES is read from it.

Target: human CXCR4 (Homo sapiens, UniProt P61073)
Assay: CXCR4/CXCL12 binding, HTRF format, single concentration (Example 23)
Parameters: host or cells: HEK293 (Tag-lite CXCR4 cells, frozen aliquots, transient expression)
Settings: 15 nM CXCR4R fluorescent probe, 3 hours, HEK293 Tag-lite CXCR4 cells
Experimental: Peptides were initially prepared as 1 mM stock in H2O and tested at a final concentration of 400 nM. Following the manufacture's protocol, a frozen aliquot of Tag-lite CXCR4 cells was thawed and immediately seeded onto 384-well plates in TLB. Immediately following the addition of cells, 400 nM peptide (final concentration) in TLB was added to the appropriate well. Then 15 nM (final concentration; EC80) of CXCR4R fluorescent probe was added to each well to initiate the HTRF assay. The plates were covered in aluminum foil and left at room temperature for 3 hours. Following the 3 hour incubation period, the plates were removed from the incubator and fluorescence measured using a Cytation 1 plate reader using a HTRF filter cube ([…]; BioTek; Winooski, Vt.). According manufacture's instruction data reduction was performed by calculating the ratio of 665 nm signal (TRF of 665 nm excitation by 620 emission; amount of CXCR4R fluorescent probe bound to terbium labeled CXCR receptor)/620 nm signal (620 excitation by 330 nm light source; normalization factor for amount of terbium labeled CXCR4 receptor in well)×10,000.

Sequence of human CXCR4 (P61073 whole entry): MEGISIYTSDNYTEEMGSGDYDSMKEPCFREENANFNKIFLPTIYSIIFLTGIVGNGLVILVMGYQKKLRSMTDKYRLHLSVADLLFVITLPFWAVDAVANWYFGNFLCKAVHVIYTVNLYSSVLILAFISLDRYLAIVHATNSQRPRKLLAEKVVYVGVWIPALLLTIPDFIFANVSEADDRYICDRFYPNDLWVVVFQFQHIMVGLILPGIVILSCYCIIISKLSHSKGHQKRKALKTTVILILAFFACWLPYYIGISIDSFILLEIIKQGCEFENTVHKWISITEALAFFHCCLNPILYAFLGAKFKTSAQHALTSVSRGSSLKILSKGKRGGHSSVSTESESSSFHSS

Row | SMILES | Percent Inhibition of CXCR4/CXCL12 Binding (400 nM peptide)
1 | CC(C)C[C@H](NC(=O)[C@H](CO)NC(=O)[C@H](CO)NC(=O)[C@H](CCCNC(=N)N)NC(=O)[C@@H](NC(=O)[C@H](CO)NC(=O)[C@H](Cc1c[nH]cn1)NC(=O)[C@H](Cc1c[nH]cn1)NC(=O)[C@H](Cc1ccc(O)cc1)NC(=O)[C@H](CCCNC(=N)N)NC(=O)[C@H](CCCNC(=N)N)NC(=O)[C@@H](N)CC(C)C)C(C)C)C(=O)N[C@@H](CCCNC(=N)N)C(=O)N1CCC[C@H]1C(=O)N[C@@H](Cc1ccc(O)cc1)C(=O)N[C@H](C(=O)O)[C@@H](C)O [compound 24] (H-LRRYHHSVRSSLRPYT-OH; N-terminus and C-terminus assumed) | 8%
2 | CC(C)C[C@H](N)C(=O)N[C@@H](CCC(=O)O)C(=O)N[C@@H](CCCNC(=N)N)C(=O)N[C@@H](Cc1ccc(O)cc1)C(=O)N[C@@H](Cc1c[nH]cn1)C(=O)N[C@@H](Cc1c[nH]cn1)C(=O)N[C@@H](CO)C(=O)N[C@H](C(=O)N[C@@H](CCCNC(=N)N)C(=O)N[C@@H](CO)C(=O)N[C@@H](CO)C(=O)O)C(C)C [compound 23] (H-LERYHHSVRSS-OH; N-terminus and C-terminus assumed) | 23%
3 | CC(C)C[C@H](NC(=O)[C@H](CO)NC(=O)[C@H](CO)NC(=O)[C@H](CC(=O)O)NC(=O)[C@@H](C)NC(=O)[C@H](CO)NC(=O)[C@H](Cc1c[nH]cn1)NC(=O)[C@H](Cc1c[nH]cn1)NC(=O)[C@H](Cc1ccc(O)cc1)NC(=O)[C@H](CCCNC(=N)N)NC(=O)[C@H](CCCNC(=N)N)NC(=O)[C@@H](N)CC(C)C)C(=O)N[C@@H](CCCNC(=N)N)C(=O)N1CCC[C@H]1C(=O)N[C@@H](Cc1ccc(O)cc1)C(=O)N[C@H](C(=O)N[C@@H](CCCCN)C(=O)O)[C@@H](C)O [compound 68] (H-LRRYHHS[dA]DSSLRPYTK-OH; N-terminus and C-terminus assumed) | −10%
4 | CC(C)C[C@H](NC(=O)[C@H](CO)NC(=O)[C@H](CO)NC(=O)[C@H](CCCNC(=N)N)NC(=O)[C@@H](NC(=O)[C@H](CO)NC(=O)[C@H](CCC(N)=O)NC(=O)[C@H](Cc1c[nH]cn1)NC(=O)[C@H](Cc1ccc(O)cc1)NC(=O)[C@H](CCCNC(=N)N)NC(=O)[C@H](CCC(=O)O)NC(=O)[C@@H](N)CC(C)C)C(C)C)C(=O)N[C@@H](CCCNC(=N)N)C(=O)N1CCC[C@H]1C(=O)N[C@@H](Cc1ccc(O)cc1)C(=O)N[C@H](C(=O)N[C@@H](CCCCN)C(=O)O)[C@@H](C)O [compound 51] (H-LERYHQSVRSSLRPYTK-OH; N-terminus and C-terminus assumed) | −2%
5 | CC(C)C[C@H](NC(=O)[C@H](CO)NC(=O)[C@H](CO)NC(=O)[C@H](CCCNC(=N)N)NC(=O)[C@@H](NC(=O)[C@H](CO)NC(=O)[C@H](Cc1c[nH]cn1)NC(=O)[C@H](CCC(N)=O)NC(=O)[C@H](Cc1ccc(O)cc1)NC(=O)[C@H](CCCNC(=N)N)NC(=O)[C@H](CCC(=O)O)NC(=O)[C@@H](N)CC(C)C)C(C)C)C(=O)N[C@@H](CCCNC(=N)N)C(=O)N1CCC[C@H]1C(=O)N[C@@H](Cc1ccc(O)cc1)C(=O)N[C@H](C(=O)N[C@@H](CCCCN)C(=O)O)[C@@H](C)O [compound 48] (H-LERYQHSVRSSLRPYTK-OH; N-terminus and C-terminus assumed) | 13%
6 | CC(C)C[C@H](NC(=O)[C@H](CO)NC(=O)[C@H](CO)NC(=O)[C@H](CCCNC(=N)N)NC(=O)[C@@H](NC(=O)[C@H](CO)NC(=O)[C@H](Cc1c[nH]cn1)NC(=O)[C@H](Cc1c[nH]cn1)NC(=O)[C@H](Cc1ccc(O)cc1)NC(=O)[C@H](CCCNC(=N)N)NC(=O)[C@H](CCCNC(=N)N)NC(=O)[C@@H](N)CC(C)C)C(C)C)C(=O)N[C@@H](CCCNC(=N)N)C(=O)N1CCC[C@H]1C(=O)O [compound 26] (H-LRRYHHSVRSSLRP-OH; N-terminus and C-terminus assumed) | 1%
7 | CC(C)C[C@H](NC(=O)[C@H](CO)NC(=O)[C@H](CO)NC(=O)[C@H](CCCNC(=N)N)NC(=O)[C@@H](NC(=O)[C@H](CO)NC(=O)[C@H](Cc1c[nH]cn1)NC(=O)[C@H](Cc1c[nH]cn1)NC(=O)[C@H](Cc1ccc(O)cc1)NC(=O)[C@H](CCCNC(=N)N)NC(=O)[C@H](CCCNC(=N)N)NC(=O)[C@@H](N)CC(C)C)C(C)C)C(=O)N[C@@H](CCCNC(=N)N)C(=O)O [compound 27] (H-LRRYHHSVRSSLR-OH; N-terminus and C-terminus assumed) | 10%
8 | CC(C)C[C@H](NC(=O)[C@H](CO)NC(=O)[C@H](CO)NC(=O)[C@H](CCCNC(=N)N)NC(=O)[C@@H](C)NC(=O)[C@H](CO)NC(=O)[C@H](Cc1c[nH]cn1)NC(=O)[C@H](Cc1c[nH]cn1)NC(=O)[C@H](Cc1ccc(O)cc1)NC(=O)[C@H](CCCNC(=N)N)NC(=O)[C@H](CCCNC(=N)N)NC(=O)[C@@H](N)CC(C)C)C(=O)N[C@@H](CCC(=O)O)C(=O)N1CCC[C@H]1C(=O)N[C@@H](Cc1ccc(O)cc1)C(=O)N[C@H](C(=O)N[C@@H](CCCCN)C(=O)O)[C@@H](C)O [compound 65] (H-LRRYHHS[dA]RSSLEPYTK-OH; N-terminus and C-terminus assumed) | −5%
9 | CC(C)C[C@H](NC(=O)[C@H](CO)NC(=O)[C@H](CO)NC(=O)[C@H](CCCNC(=N)N)NC(=O)[C@@H](C)NC(=O)[C@H](CO)NC(=O)[C@H](CC(N)=O)NC(=O)[C@H](Cc1c[nH]cn1)NC(=O)[C@H](Cc1ccc(O)cc1)NC(=O)[C@H](CCCNC(=N)N)NC(=O)[C@H](CCC(=O)O)NC(=O)[C@@H](N)CC(C)C)C(=O)N[C@@H](CCCNC(=N)N)C(=O)N1CCC[C@H]1C(=O)N[C@@H](Cc1ccc(O)cc1)C(=O)N[C@H](C(=O)N[C@@H](CCCCN)C(=O)O)[C@@H](C)O [compound 46] (H-LERYHNS[dA]RSSLRPYTK-OH; N-terminus and C-terminus assumed) | −4%
10 | CC(C)C[C@H](NC(=O)[C@H](CO)NC(=O)[C@H](CO)NC(=O)[C@H](CCCNC(=N)N)NC(=O)[C@@H](NC(=O)[C@H](CO)NC(=O)[C@H](Cc1c[nH]cn1)NC(=O)[C@H](Cc1c[nH]cn1)NC(=O)[C@H](Cc1ccc(O)cc1)NC(=O)[C@H](CCCNC(=N)N)NC(=O)[C@H](CCC(=O)O)NC(=O)[C@@H](N)CC(C)C)C(C)C)C(=O)N[C@@H](CCCNC(=N)N)C(=O)N1CCC[C@H]1C(=O)O [compound 20] (H-LERYHHSVRSSLRP-OH; N-terminus and C-terminus assumed) | 37%
11 | CC(C)C[C@H](NC(=O)[C@H](CO)NC(=O)[C@H](CO)NC(=O)[C@H](CCC(=O)O)NC(=O)[C@@H](NC(=O)[C@H](CO)NC(=O)[C@H](Cc1c[nH]cn1)NC(=O)[C@H](Cc1c[nH]cn1)NC(=O)[C@H](Cc1ccc(O)cc1)NC(=O)[C@H](CCCNC(=N)N)NC(=O)[C@H](CCCNC(=N)N)NC(=O)[C@@H](N)CC(C)C)C(C)C)C(=O)N[C@@H](CCCNC(=N)N)C(=O)N1CCC[C@H]1C(=O)N[C@@H](Cc1ccc(O)cc1)C(=O)N[C@H](C(=O)N[C@@H](CCCCN)C(=O)O)[C@@H](C)O [compound 62] (H-LRRYHHSVESSLRPYTK-OH; N-terminus and C-terminus assumed) | 4%
12 | CC(C)C[C@H](NC(=O)[C@H](CO)NC(=O)[C@H](CO)NC(=O)[C@H](CCCNC(=N)N)NC(=O)[C@@H](C)NC(=O)[C@H](CO)NC(=O)[C@H](Cc1c[nH]cn1)NC(=O)[C@H](Cc1c[nH]cn1)NC(=O)[C@H](Cc1ccc(O)cc1)NC(=O)[C@H](CCCNC(=N)N)NC(=O)[C@H](CCCNC(=N)N)NC(=O)[C@@H](N)CC(C)C)C(=O)N[C@@H](CC(=O)O)C(=O)N1CCC[C@H]1C(=O)N[C@@H](Cc1ccc(O)cc1)C(=O)N[C@H](C(=O)N[C@@H](CCCCN)C(=O)O)[C@@H](C)O [compound 69] (H-LRRYHHS[dA]RSSLDPYTK-OH; N-terminus and C-terminus assumed) | −5%
13 | CC(C)C[C@H](NC(=O)[C@H](CO)NC(=O)[C@H](CO)NC(=O)[C@H](CCCNC(=N)N)NC(=O)[C@@H](NC(=O)[C@H](CO)NC(=O)[C@H](Cc1c[nH]cn1)NC(=O)[C@H](Cc1c[nH]cn1)NC(=O)[C@H](Cc1ccc(O)cc1)NC(=O)[C@H](CCCNC(=N)N)NC(=O)[C@H](CCC(=O)O)NC(=O)[C@@H](N)CC(C)C)C(C)C)C(=O)N[C@@H](CCCNC(=N)N)C(=O)O [compound 21] (H-LERYHHSVRSSLR-OH; N-terminus and C-terminus assumed) | 20%
14 | CC(C)C[C@H](NC(=O)[C@H](CO)NC(=O)[C@H](CO)NC(=O)[C@H](CCCNC(=N)N)NC(=O)[C@@H](NC(=O)[C@H](CO)NC(=O)[C@H](Cc1c[nH]cn1)NC(=O)[C@H](CC(N)=O)NC(=O)[C@H](Cc1ccc(O)cc1)NC(=O)[C@H](CCCNC(=N)N)NC(=O)[C@H](CCC(=O)O)NC(=O)[C@@H](N)CC(C)C)C(C)C)C(=O)N[C@@H](CCCNC(=N)N)C(=O)N1CCC[C@H]1C(=O)N[C@@H](Cc1ccc(O)cc1)C(=O)N[C@H](C(=O)N[C@@H](CCCCN)C(=O)O)[C@@H](C)O [compound 42] (H-LERYNHSVRSSLRPYTK-OH; N-terminus and C-terminus assumed) | 32%
